What was measured:
RIP3 [1] = target: T1, RIP3 (Homo sapiens, UniProt Q9Y572); assay: Mechanism of action / ATP competition study with RIP3 enzyme; format: biochemical; conditions: 20 min pre-incubation; Michaelis-Menten and Lineweaver-Burk plots
Procedure: To understand the interaction modes of these inhibitors within RIP3, the mechanisms of action studies including ATP competition were further performed with HS-1371. A 20 min pre-incubation of the compound and RIP3 enzyme was performed to ensure HS-1371 binding to the enzyme and equilibration. The reactions were monitored every 5–15 min to obtain progress curves with a time course. At each time point, radioisotope signal (^33P) was converted into M phosphate transferred to substrate and was plotted against time. The slopes (or velocity; M/min) were then plotted against ATP concentrations to generate a Michaelis–Menten plot and a subsequent Lineweaver–Burk plot (double-reciprocal plot) using GraphPad Prism software (GraphPad Software Inc., San Diego, CA). The results were further analyzed with global fit using GraFit software.

[2] = test system: mouse embryonic fibroblast (MEF) cells; assay: TCZ-induced necroptosis in MEF cells; format: cell-based; conditions: TNF plus cycloheximide and zVAD (TCZ)
Procedure: Cells were pretreated with DAB or HS-1371 for 2 h and then treated with TSZ (6 h for immunoblotting, 24 h for cell death assay). Cell lysates were analyzed by immunoblotting (left bottom panel), and cell viability was analyzed by MTT assay (right panel). The results are presented as means ± SEM. *P < 0.05, **P < 0.01, ***P < 0.001. c, d HS-1371 had the same effect on mouse cells. L929 (mouse sarcoma, c) and MEF (mouse embryonic fibroblast, d) cells were pretreated with inhibitors and then necroptosis was induced by TNF. Cell lysates were analyzed by immunoblotting (upper panel), and cell viability was analyzed by MTT assay (bottom panel). The results are presented as means ± SEM. *P < 0.05, **P < 0.01, ***P < 0.001

RIP3 [3] = target: T1, RIP3; assay: Basal S227 auto-phosphorylation of RIP3 in HT-29 cells (immunoblot); format: cell-based; set-up: RIP3-expressing HT-29 cells; endogenous in cells; host or cells: HT-29; conditions: 10 μM, 9 h
Procedure: Cells were rinsed in cold phosphate-buffered saline (PBS) and lysed in M2 buffer containing 20 mM Tris at pH 7, 0.5% NP-40, 250 mM NaCl, 3 mM EDTA, 3 mM EGTA, 2 mM DTT, 0.5 mM PMSF, 20 mM β-glycerol phosphate, 1 mM sodium vanadate, and 1 μg/mL leupeptin. The cell extracts were subjected to western blot analysis. For immunoprecipitation, lysates were mixed and precipitated with antibody and protein A-agarose beads overnight or for 4 h at 4 °C. Bound proteins were removed by boiling in SDS and resolved by SDS-PAGE, and immunoblotting was visualized by enhanced chemiluminescence (ECL, Amersham).
RIP3 kinase activity is essential for TNF-induced necroptosis, and human S227 auto-phosphorylation sites of RIP3 are required for the interaction of RIP3 with its substrate MLKL[13],[14], which is indispensable for downstream necroptotic cell death signaling. To test the possible effects of the RIP3 inhibitors on necroptosis, HT-29 cells were treated with the kinase inhibitors, and RIP3 kinase activity was determined by examining its phosphorylation status.
Fig. 2 Novel inhibitors can block RIP3 S227 phosphorylation. a Western blotting showing various kinase inhibitor effects on RIP3 S227 auto-phosphorylation. HT-29 cells were treated with four tested kinase inhibitors (1308, 1336, 1338, and 1371, 10 μM) for 9 h. As a control, KK5101 (Trk alpha inhibitor) and HS829 (IKK beta inhibitor) were also treated at a concentration of 10 μM for 9 h. Prototypical necroptosis stimuli (TNF + zVAD + either cycloheximide or SMAC mimetic; hereafter referred to as TCZ or TSZ) were applied for 6 h. […] HT-29 cells were treated with 4 tested kinase inhibitors for 24 h, and cell viability was analyzed by MTT assay or phase-contrast microscopy. […] HT-29 cells were pretreated with necrostatin-1 (Nec-1, 40 μM), dabrafenib (DAB, 10 μM) or necrosulfonamide (NSA, 1 μM) for 2 h and then treated with TSZ for 6 h. […] HT-29 cells were pretreated with four tested kinase inhibitors for 2 h and then treated with TSZ for 6 h. Cell lysates were analyzed by immunoblotting. f HT-29 cells were pretreated with Nec-1 (40 μM), DAB (5 μM) or HS-1371 (5 μM) for 2 h and then treated with TSZ for 4 h. Cell lysates were immunoprecipitated with anti-RIP3 antibody. Immunoprecipitates and total lysates were analyzed by Western blotting

HT-29 cells = assay: TSZ-induced necroptotic cell death in HT-29 cells (MTT assay); format: cell-based
Procedure: Cell viability was determined using tetrazolium dye colorimetric tests (the MTT assay) read at 570 nm. PI staining was quantified using propidium iodide (Cat. No. 51-66211E, BD Biosciences). Lactate dehydrogenase (LDH) leakage was quantified using the […] according to the manufacturer’s instructions. The LDH absorbance was read at 490 nm, and the mean ± STDEV of duplicates is presented.
HT-29 cells were pretreated with four tested inhibitors for 2 h and then treated with TSZ (6 h for immunoblotting, 24 h for cell death assay). Cell lysates were analyzed by immunoblotting, and cell viability was analyzed by MTT assay or phase-contrast microscopy. The results are presented as the means ± SEM. *P < 0.05, **P < 0.01, ***P < 0.001. b Protection of necroptosis by HS-1371 treatment is similar with dabrafenib, which abolished downstream events. HT-29 cells were pretreated with various necroptosis inhibitors and HS-1371 before TSZ treatment. Cell lysates were analyzed by immunoblotting, and cell viability was analyzed by MTT assay (left panel). Cells were stained with phospho-MLKL antibody and analyzed by confocal fluorescence microscopy (middle panel), and cell death was further analyzed by FACS analysis after PI staining (right panel). c HS-1371 protects cells from TNF-induced necroptosis in a dose-dependent manner. HT-29 cells were pretreated with indicated concentrations of HS-1371 and then treated with TSZ (6 h for immunoblotting, 24 h for cell death assay). Cell lysates were analyzed by immunoblotting, and cell viability was analyzed by MTT assay or phase-contrast microscopy. The results are presented as means ± SEM. *P < 0.05, **P < 0.01, ***P < 0.001 TEXT PRINTED IN THE PICTURE: (b) TSZ: 20.7 | (b) TSZ + Nec-1: 5.8 | (b) TSZ + DAB: 5.5 | (b) TSZ + 1371: 6.8 DOUBTS OF THE COPYIST ABOUT THIS PICTURE: Panel b, flow cytometry plots: the red gate numbers are printed without a measure or unit, so none is given / Panel b: the 'Untreated' control plot prints 7.7; left out because it is not a substance

T1 sequence (Q9Y572 whole entry): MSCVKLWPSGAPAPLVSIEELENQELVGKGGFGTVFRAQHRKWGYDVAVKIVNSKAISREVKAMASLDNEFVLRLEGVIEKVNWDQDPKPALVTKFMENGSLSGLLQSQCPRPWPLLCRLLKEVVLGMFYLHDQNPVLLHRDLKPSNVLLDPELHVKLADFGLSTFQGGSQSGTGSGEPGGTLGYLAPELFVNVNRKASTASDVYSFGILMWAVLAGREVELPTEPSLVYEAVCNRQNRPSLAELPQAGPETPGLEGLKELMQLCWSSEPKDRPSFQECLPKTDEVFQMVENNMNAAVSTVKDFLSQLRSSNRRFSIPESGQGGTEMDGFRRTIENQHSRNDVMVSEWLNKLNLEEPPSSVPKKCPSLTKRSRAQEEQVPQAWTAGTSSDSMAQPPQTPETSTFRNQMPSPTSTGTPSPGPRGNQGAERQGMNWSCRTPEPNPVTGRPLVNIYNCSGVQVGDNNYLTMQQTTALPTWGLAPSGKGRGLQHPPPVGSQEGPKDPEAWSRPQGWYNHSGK

For `Cc1ccc(Oc2ccnc3cc(-c4cnn(C5CCNCC5)c4)ccc23)cc1` [HS-1371, 7-(1-(Piperidin-4-yl)-1H-pyrazol-4-yl)-4-(p-tolyloxy)quinoline], the “mechanism of action upon binding to RIP3” value (RIP3 [1]) was “time-independent and ATP-competitive”, the “MLKL phosphorylation and cell death” value [2] was “effectively prevented” and the “effect on S227 auto-phosphorylation of RIP3 at the basal level” value (RIP3 [3]) was “inhibitory effect”. For the same compound, the “TNF-induced cell death, pre-treatment and post-treatment” value (HT-29 cells; HT-29, 5 μM, pretreated 1 h or applied 1 or 2 h after induction) was “completely inhibited”, the “viability in response to TSZ-mediated necroptosis, dose-dependent” value (HT-29 cells; HT-29, indicated concentrations, TSZ 24 h) was “effectively restored” and the “cellular cytotoxicity, post-treatment after TSZ” value (HT-29 cells; HT-29, post-treatment until approximately 5 h after TSZ) was “significantly reduced”. For the same compound, the “rescue from TSZ-induced cell death” value (HT-29 cells; HT-29, pretreated 2 h, TSZ 24 h) was “rescued”.

Source: paper PMC6148246, “HS-1371, a novel kinase inhibitor of RIP3-mediated necroptosis” (Experimental & Molecular Medicine, 2018)
